Experimental data published in US9943506B2, “BCL6 inhibitors as anticancer agents” (Cornell University, priority 2013, dated 2018).
Like-named read-outs stand apart in the source and are kept apart here.

Experiments:
BCL6-BTB = BCL6-BTB (Homo sapiens, UniProt P41182); assay: MicroScale Thermophoresis binding to BCL6-BTB
Procedure: BCL6 is also required for normal development of germinal center (GC) B-cells.
Recombinant BCL6-BTB was labeled using the RED-NHS Labeling kit (NanoTemper Technologies). […] The label:protein ratio was determined using photometry at 650 nm and Bradford reagent. […] The labeled BCL6-BTB was adjusted to 400 nM with PBS (Thermo) buffer supplemented with 0.05% Tween-80 (Fisher scientific). […] After 10 min incubation, approximately 4 μL of each solution was filled into Monolith NT Standard Treated Capillaries (NanoTemper Technologies GmbH). Thermophoresis was measured using a Monolith NT.115 instrument (NanoTemper Technologies GmbH) at an ambient temperature of 25° C. with 5 s/30 s/5 s laser off/on/off times, respectively. Instrument parameters were adjusted with 90% LED power and 40% MST power. Data of three independent experiments were analyzed (NT.Analysis software version 1.5.41, NanoTemper Technologies) using the signal from Thermophoresis.

Ly7 DLBCL cells = assay: Growth inhibition of DLBCL cells, Ly7; assay type: cell-based
Procedure: (§1) 50,000 cells per well were treated for 48 hours with different concentrations of the compounds in 96 well plates, using DMSO as a control. Then, viability was determined with Cell Titer Blue™ (Promega) and growth inhibition was calculated as the percentage of viable cells with respect to cells treated with DMSO alone. GI50 values were determined by dose-response curves.
(§2) 293T cells were grown in Dulbecco's modified Eagles medium supplemented with 10% fetal bovine serum (FBS) (Gemini Bio-Products, Woodland, Calif.) and 1% penicillin-streptomycin. DLBCL cell lines OCI-Ly1, OCI-Ly1-B50, OCI-Ly7, OCI-Ly10 and OCI-Ly19 were grown in 80% Iscove's medium, 20% FBS and penicillin G/streptomycin. DLBCL cell lines Toledo, Farage, SU-DHL4, DOHH-2, SC-1, RCK8, TMD8, HBL-1, Ly3, Karpas 422 and SU-DHL6 were cultured in 90% RPMI medium, 10% FBS, 2 mM glutamine, 10 mM Hepes and penicillin G/streptomycin. All cell lines were cultured at 37° C. in a humidified atmosphere of 5% CO2.

SUDHL6 DLBCL cells = assay: Growth inhibition of DLBCL cells, SUDHL6; assay type: cell-based; settings: Homo sapiens, SU-DHL-6
Procedure: as §1, §2

Toledo DLBCL cells = assay: Growth inhibition of DLBCL cells, Toledo; assay type: cell-based; settings: Homo sapiens
Procedure: as §1, §2

Ly3 DLBCL cells = assay: Growth inhibition of DLBCL cells, Ly3; assay type: cell-based
Procedure: as §1, §2

Ly10 DLBCL cells = assay: Growth inhibition of DLBCL cells, Ly10; assay type: cell-based; settings: Table 2, BCL-6 dependent, 48 hours
Procedure: as §1, §2

Karpas 422 DLBCL cells = assay: Growth inhibition of DLBCL cells, Karpas 422; assay type: cell-based; settings: Homo sapiens, read-out: GI50 Karpas 422
Procedure: as §1, §2

Ly1B50 DLBCL cells = assay: Growth inhibition of DLBCL cells, Ly1B50; assay type: cell-based; settings: Table 2; BCL-6 independent; 48 hours
Procedure: as §1, §2

WSU-DLCL2 DLBCL cells = assay: Growth inhibition of DLBCL cells, WSU-DLCL2; assay type: cell-based; settings: Homo sapiens, WSUDLCL2; Table 8; Bcl-6 independent
Procedure: as §1

[1] = Table 13, BCL6 dependent, read-out: GI50 SUDHL6
[2] = Table 2, BCL-6 dependent, 48 hours
[3] = Table 2, BCL-6 dependent, 48 hours, read-out: GI50 SUDH6
[4] = Table 2, BCL-6 independent, 48 hours
[5] = 48 h, Table 2, BCL-6 independent
[6] = Table 7, BCL6 dependent, read-out: GI50 SUDHL6
[7] = Table 8, Bcl-6 dependent, read-out: GI50 SUDH6

Row | Kd (BCL6-BTB; Table 13) | GI50 (SUDHL6 DLBCL cells; [1]) | GI50 (SUDHL6 DLBCL cells; [7]) | GI50 (Karpas 422 DLBCL cells; Table 8, Bcl-6 independent) | SMILES | GI50 (Ly7 DLBCL cells; Table 13, BCL6 dependent) | GI50 (Toledo DLBCL cells; Table 13, BCL6 independent) | GI50 (Ly3 DLBCL cells; Table 8, Bcl-6 dependent) | GI50 (Ly7 DLBCL cells; Table 8, Bcl-6 dependent) | GI50 (Toledo DLBCL cells; Table 8, Bcl-6 independent) | GI50 (WSU-DLCL2 DLBCL cells) | also measured
1 | 87 ± 12 µM | > 125 µM | – | – | Clc1ccc2[nH]c(SCc3ccccc3)nc2c1 [Compound 1057] | > 125 µM | > 125 µM | – | – | – | – | –
2 | 180 ± 36 µM | 40 ± 10 µM | – | – | O=[N+]([O-])c1ccc2[nH]c(SCc3ccccc3)nc2c1 [Compound 1061] | 60 µM | > 125 µM | – | – | – | – | –
3 | 315 ± 24 µM | > 125 µM | – | – | CCOc1ccc2[nH]c(SCc3ccccc3)nc2c1 [Compound 1063] | > 125 µM | > 125 µM | – | – | – | – | –
4 | – | – | – | – | O=C(O)CN1C(=O)/C(=C2/C(=O)Nc3c(Cl)cc(Cl)cc32)SC1=S [Compound 2039, (Z)-2-(5-(5,7-Dichloro-2-oxoindolin-3-ylidene)-4-oxo-2-thioxothiazolidin-3-yl)acetic acid] | – | – | – | – | – | – | GI50 (Ly3 DLBCL cells; [2]): > 40 µM; GI50 (Ly7 DLBCL cells; 48 h, Table 2, BCL-6 dependent): > 40 µM; GI50 (Ly10 DLBCL cells): > 40 µM; GI50 (SUDHL6 DLBCL cells; [3]): > 40 µM; GI50 (Karpas 422 DLBCL cells; [4]): > 40 µM; GI50 (Toledo DLBCL cells; [5]): > 40 µM; GI50 (Ly1B50 DLBCL cells): > 40 µM
5 | – | – | – | – | O=C(O)CN1C(=O)/C(=C2/C(=O)Nc3ccc(Br)cc32)SC1=S [Compound 2041, (Z)-2-(5-(5-Bromo-2-oxoindolin-3-ylidene)-4-oxo-2-thioxothiazolidin-3-yl)acetic acid] | – | – | – | – | – | – | GI50 (Ly3 DLBCL cells; [2]): > 40 µM; GI50 (Ly7 DLBCL cells; 48 h, Table 2, BCL-6 dependent): > 40 µM; GI50 (Ly10 DLBCL cells): > 40 µM; GI50 (SUDHL6 DLBCL cells; [3]): > 40 µM; GI50 (Karpas 422 DLBCL cells; [4]): > 40 µM; GI50 (Toledo DLBCL cells; [5]): > 40 µM; GI50 (Ly1B50 DLBCL cells): > 40 µM
6 | – | – | 10 ± 1 µM | > 40 µM | O=C(CN1C(=O)C(=O)c2cc(Cl)ccc21)OCc1ccccc1 [Compound 2071] | – | – | > 40 µM | 26 ± 1 µM | > 40 µM | > 40 µM | GI50 (Ly7 DLBCL cells; Table 7, BCL6 dependent): 53 µM; GI50 (SUDHL6 DLBCL cells; [6]): 35 µM; GI50 (Toledo DLBCL cells; Table 7, BCL6 independent): > 125 µM
7 | – | – | 17 ± 1 µM | > 40 µM | O=C(CN1C(=O)C(=O)c2cc(F)ccc21)OCc1ccccc1 [Compound 2073] | – | – | > 40 µM | 36 ± 7 µM | > 40 µM | > 40 µM | GI50 (Ly7 DLBCL cells; Table 7, BCL6 dependent): 30 µM; GI50 (SUDHL6 DLBCL cells; [6]): 30 µM; GI50 (Toledo DLBCL cells; Table 7, BCL6 independent): 40 µM
8 | – | – | > 30 µM | > 30 µM | O=C(O)CCN1C(=O)/C(=C2/C(=O)N(CC(=O)OCc3ccccc3)c3ccc(F)cc32)SC1=S [Compound 2097] | – | – | > 30 µM | > 30 µM | > 30 µM | > 30 µM | –
9 | – | – | > 30 µM | > 30 µM | O=C(O)CCN1C(=O)/C(=C2/C(=O)N(CC(=O)OCc3ccccc3)c3ccc(Cl)cc32)SC1=S [Compound 2099] | – | – | > 30 µM | > 30 µM | > 30 µM | > 30 µM | Kd (BCL6-BTB; Table 5): 5.5 ± 0.7 µM; GI50 (Ly7 DLBCL cells; Table 5, BCL6 dependent): 65 µM; GI50 (SUDHL6 DLBCL cells; Table 5, BCL6 dependent, read-out: GI50 SUDHL6): 30 ± 7 µM; GI50 (Toledo DLBCL cells; Table 5, BCL6 independent): 75 µM
10 | – | – | > 30 µM | > 30 µM | O=C(O)CCN1C(=O)/C(=C2/C(=O)N(CC(=O)OCc3ccccc3)c3ccc(Br)cc32)SC1=S [Compound 2101] | – | – | > 30 µM | > 30 µM | > 30 µM | > 30 µM | –
